According to US9113629B2, “4-amino-6-(4-substituted-phenyl)-picolinates and 6-amino-2-(4-substituted-phenyl)-pyrimidine-4-carboxylates and their use as herbicides” (DOW AGROSCIENCES LLC, priority 2013, dated 2015):

Tests used:
Format in all cases: in vivo
[1] = test system: AVEFA: wild oats (Avena fatua); assay: Pre-emergent Test I herbicidal activity; settings: pre-emergence, 336 h, read-out: Visual Growth Reduction (%) 14 Days After Application, AVEFA; for pest or weed control at 4000 g/ha: 4 kg ai/ha
Procedure: (§1) Pre-emergent Test I Seeds of test species were planted into round plastic pots (5-inch diameter) containing sandy loam soil. After planting, all pots were sub-irrigated 16 h prior to compound application. Compounds were dissolved in a 97:3 v/v (volume/volume) mixture of acetone and dimethyl sulfoxide (DMSO) and diluted to the appropriate concentration in a final application solution containing water, acetone, isopropanol, DMSO and Agri-dex (crop oil concentrate) in a 59:23:15:1.0:1.5 v/v ratio and 0.02% w/v (weight/volume) of Triton X-155 to obtain the spray solution containing the highest application rate. Additional application rates were obtained by serial dilution of the high rate solution with the above application solution. Formulated compound (2.7 mL) was applied pipetted evenly over the soil surface followed by incorporation with water (15 mL). Following treatment, pots were returned to the greenhouse for the duration of the experiment. The greenhouse was programmed for an approximate 15 h photoperiod which was maintained at about 23-29° C. during the day and 22-28° C. during the night. Nutrients and water were added on a regular basis through surface irrigation and supplemental lighting was provided with overhead metal halide 1000-Watt lamps as necessary. Herbicidal effect ratings were obtained 14 days after treatment. All evaluations were made relative to appropriate controls on a scale of 0 to 100 where 0 represents no herbicidal effect and 100 represents plant death or lack of emergence from the soil.

[2] = test system: IPOHE: ivyleaf morningglory (Ipomoea hederecea); assay: Pre-emergent Test I herbicidal activity; settings: pre-emergence, 336 h, read-out: Visual Growth Reduction (%) 14 Days After Application, IPOHE; for pest or weed control at 4000 g/ha: 4 kg ai/ha; for pest or weed control at 4040 g/ha: 4.04 kg ai/ha
Procedure: as §1

[3] = test system: HELAN: sunflower (Helianthus annuus); assay: Pre-emergent Test I herbicidal activity; settings: pre-emergence, 336 h, read-out: Visual Growth Reduction (%) 14 Days After Application, HELAN; for pest or weed control at 4000 g/ha: 4 kg ai/ha; for pest or weed control at 4040 g/ha: 4.04 kg ai/ha
Procedure: as §1

[4] = test system: SETFA: giant foxtail (Setaria faberi); assay: Pre-emergent Test I herbicidal activity; settings: pre-emergence, 336 h, read-out: Visual Growth Reduction (%) 14 Days After Application, SETFA; for pest or weed control at 4000 g/ha: 4 kg ai/ha; for pest or weed control at 4040 g/ha: 4.04 kg ai/ha
Procedure: as §1

[5] = test system: ECHCG: barnyardgrass (Echinochloa crus-galli); assay: Pre-emergent Test I herbicidal activity; settings: pre-emergence, 336 h, read-out: Visual Growth Reduction (%) 14 Days After Application, ECHCG; for pest or weed control at 4000 g/ha: 4 kg ai/ha; for pest or weed control at 4040 g/ha: 4.04 kg ai/ha
Procedure: as §1

[6] = test system: AVEFA: wild oats (Avena fatua); assay: Post-emergent Test I herbicidal activity; settings: post-emergence, 336 h, read-out: Visual Growth Reduction (%) 14 Days After Application, AVEFA; for pest or weed control at 4000 g/ha: 4 kg ai/ha
Procedure: (§2) Post-emergent Test I Seeds test species were obtained from commercial suppliers and planted into a 13 cm diameter-round pot containing soil-less media mix (metro-mix 360®, Sun Gro Horticulture). Postemergence treatments were planted 8-12 days prior to application and cultured in a greenhouse equipped with supplemental light sources to provide a 16 h photoperiod at 24-29° C. All pots were surface irrigated.
(§3) A weighted amount, determined by the highest rate to be tested, of each compound was dissolved in 1.3 mL acetone-DMSO (97:3, v/v) and diluted with 4.1 mL water-isopropanol-crop oil concentrate (78:20:2, v/v/v) containing 0.02% Triton X-155 to obtain concentrated stock solutions. Additional application rates were obtained by serial dilution of the high rate solution into a solution containing appropriate volume of 97:3 v/v mixture of acetone and DMSO and appropriate volume of an aqueous mixture of water, isopropyl alcohol, crop oil concentrate (78:20:2, v/v/v) containing 0.02% Triton X-155.
(§4) Formulated compounds were applied using a DeVilbiss® compressed air sprayer at 2-4 psi. Following treatment, pots were returned to the greenhouse for the duration of the experiment. All pots were sub-irrigated as need to provide optimum growing conditions. All pots were fertilized one time per week by subirrigating with Peters Peat-Lite Special® fertilizer (20-10-20).
(§5) […] All evaluations were made visually on a scale of 0 to 100 where 0 represents no activity and 100 represents complete plant death. Visual assessments of plant injury were made based on growth reduction, discoloration, leaf deformity and necrosis.

[7] = test system: IPOHE: ivyleaf morningglory (Ipomoea hederecea); assay: Post-emergent Test I herbicidal activity; settings: post-emergence, 336 h, read-out: Visual Growth Reduction (%) 14 Days After Application, IPOHE; for pest or weed control at 4000 g/ha: 4 kg ai/ha; for pest or weed control at 4040 g/ha: 4.04 kg ai/ha
Procedure: as §2, §3, §4, §5

[8] = test system: HELAN: sunflower (Helianthus annuus); assay: Post-emergent Test I herbicidal activity; settings: post-emergence, 336 h, read-out: Visual Growth Reduction (%) 14 Days After Application, HELAN; for pest or weed control at 4000 g/ha: 4 kg ai/ha; for pest or weed control at 4040 g/ha: 4.04 kg ai/ha
Procedure: as §2, §3, §4, §5

[9] = test system: SETFA: giant foxtail (Setaria faberi); assay: Post-emergent Test I herbicidal activity; settings: post-emergence, 336 h, read-out: Visual Growth Reduction (%) 14 Days After Application, SETFA; for pest or weed control at 4000 g/ha: 4 kg ai/ha; for pest or weed control at 4040 g/ha: 4.04 kg ai/ha
Procedure: as §2, §3, §4, §5

[10] = test system: ECHCG: barnyardgrass (Echinochloa crus-galli); assay: Post-emergent Test I herbicidal activity; settings: post-emergence, 336 h, read-out: Visual Growth Reduction (%) 14 Days After Application, ECHCG; for pest or weed control at 4000 g/ha: 4 kg ai/ha; for pest or weed control at 4040 g/ha: 4.04 kg ai/ha
Procedure: as §2, §3, §4, §5

[11] = test system: AMARE: redroot pigwseed (Amaranthus retroflexus); assay: Pre-emergent Test I herbicidal activity; settings: pre-emergence, 336 h, 2 kg ai/ha, read-out: Visual Growth Reduction (%) 14 Days After Application, AMARE
Procedure: as §1

[12] = test system: AMARE: redroot pigwseed (Amaranthus retroflexus); assay: Post-emergent Test I herbicidal activity; settings: post-emergence, read-out: Visual Growth Reduction (%), AMARE
Procedure: as §2, §3, §4, §5

Nc1c(F)c(-c2ccc(Br)cc2)nc(C(=O)O)c1Cl [Compound 20]
pest or weed control at 4000 g/ha [1]: 95 to 100%
pest or weed control at 4000 g/ha [2]: 95 to 100%
pest or weed control at 4000 g/ha [3]: 95 to 100%
pest or weed control at 4000 g/ha [4]: 95 to 100%
pest or weed control at 4000 g/ha [5]: 95 to 100%
pest or weed control at 4000 g/ha [6]: 75 to 84%
pest or weed control at 4000 g/ha [7]: 85 to 94%
pest or weed control at 4000 g/ha [8]: 95 to 100%
pest or weed control at 4000 g/ha [9]: 95 to 100%
pest or weed control at 4000 g/ha [10]: 95 to 100%

N#Cc1ccc(-c2nc(C(=O)O)c(Cl)c(N)c2F)cc1 [Compound 39]
pest or weed control at 2000 g/ha ([1]; 2 kg ai/ha): 85 to 94%
pest or weed control at 2000 g/ha [11]: 95 to 100%
pest or weed control at 2000 g/ha ([2]; 2 kg ai/ha): 95 to 100%
pest or weed control at 2000 g/ha ([3]; 2 kg ai/ha): 95 to 100%
pest or weed control at 2000 g/ha ([5]; 2 kg ai/ha): 95 to 100%
pest or weed control at 2000 g/ha ([6]; 2 kg ai/ha): 75 to 84%
pest or weed control at 2000 g/ha ([12]; 2 kg ai/ha): 95 to 100%
pest or weed control at 2000 g/ha ([7]; 2 kg ai/ha): 60 to 74%
pest or weed control at 2000 g/ha ([8]; 2 kg ai/ha): 95 to 100%
pest or weed control at 2000 g/ha ([10]; 2 kg ai/ha): 85 to 94%

COC(=O)c1nc(-c2ccc(Br)c(F)c2F)c(F)c(N)c1Cl [Compound 109, methyl 4-amino-6-(4-bromo-2,3-difluorophenyl)-3-chloro-5-fluoropicolinate]
pest or weed control at 4000 g/ha [1]: 85 to 94%
pest or weed control at 4000 g/ha [2]: 95 to 100%
pest or weed control at 4000 g/ha [3]: 75 to 84%
pest or weed control at 4000 g/ha [4]: 95 to 100%
pest or weed control at 4000 g/ha [5]: 95 to 100%
pest or weed control at 4000 g/ha [6]: 75 to 84%
pest or weed control at 4000 g/ha [7]: 85 to 94%
pest or weed control at 4000 g/ha [8]: 95 to 100%
pest or weed control at 4000 g/ha [9]: 95 to 100%
pest or weed control at 4000 g/ha [10]: 95 to 100%

Nc1c(F)c(-c2ccc(Br)c(F)c2F)nc(C(=O)O)c1Cl [Compound 147]
pest or weed control at 3960 g/ha ([1]; 3.96 kg ai/ha): 95 to 100%
pest or weed control at 3960 g/ha ([2]; 3.96 kg ai/ha): 95 to 100%
pest or weed control at 3960 g/ha ([3]; 3.96 kg ai/ha): 95 to 100%
pest or weed control at 3960 g/ha ([4]; 3.96 kg ai/ha): 95 to 100%
pest or weed control at 3960 g/ha ([5]; 3.96 kg ai/ha): 95 to 100%
pest or weed control at 3960 g/ha ([6]; 3.96 kg ai/ha): 75 to 84%
pest or weed control at 3960 g/ha ([12]; 3.96 kg ai/ha): 95 to 100%
pest or weed control at 3960 g/ha ([7]; 3.96 kg ai/ha): 95 to 100%
pest or weed control at 3960 g/ha ([8]; 3.96 kg ai/ha): 95 to 100%
pest or weed control at 3960 g/ha ([9]; 3.96 kg ai/ha): 95 to 100%
pest or weed control at 3960 g/ha ([10]; 3.96 kg ai/ha): 95 to 100%

COC(=O)c1nc(-c2cccc(F)c2F)c(F)c(N)c1Cl [Compound 199]
pest or weed control at 4000 g/ha [2]: 75 to 84%
pest or weed control at 4000 g/ha [3]: 60 to 74%
pest or weed control at 4000 g/ha [4]: 45 to 59%
pest or weed control at 4000 g/ha [5]: 0 to 29%
pest or weed control at 4000 g/ha ([12]; 4 kg ai/ha): 95 to 100%
pest or weed control at 4000 g/ha [7]: 75 to 84%
pest or weed control at 4000 g/ha [8]: 95 to 100%
pest or weed control at 4000 g/ha [9]: 85 to 94%
pest or weed control at 4000 g/ha [10]: 60 to 74%

COC(=O)c1nc(-c2ccccc2F)c(F)c(N)c1Cl [Compound 206]
pest or weed control at 4040 g/ha [2]: 95 to 100%
pest or weed control at 4040 g/ha [3]: 95 to 100%
pest or weed control at 4040 g/ha [4]: 75 to 84%
pest or weed control at 4040 g/ha [5]: 0 to 29%
pest or weed control at 4040 g/ha ([12]; 4.04 kg ai/ha): 95 to 100%
pest or weed control at 4040 g/ha [7]: 75 to 84%
pest or weed control at 4040 g/ha [8]: 95 to 100%
pest or weed control at 4040 g/ha [9]: 0 to 29%
pest or weed control at 4040 g/ha [10]: 0 to 29%

C=Cc1c(C(=O)O)nc(-c2ccc(Cl)c(F)c2)c(F)c1N [Compound 214]
pest or weed control at 4040 g/ha ([1]; 4.04 kg ai/ha): 85 to 94%
pest or weed control at 4040 g/ha [2]: 95 to 100%
pest or weed control at 4040 g/ha [3]: 95 to 100%
pest or weed control at 4040 g/ha [4]: 95 to 100%
pest or weed control at 4040 g/ha [5]: 95 to 100%
pest or weed control at 4040 g/ha ([6]; 4.04 kg ai/ha): 60 to 74%
pest or weed control at 4040 g/ha [7]: 95 to 100%
pest or weed control at 4040 g/ha [8]: 95 to 100%
pest or weed control at 4040 g/ha [9]: 85 to 94%
pest or weed control at 4040 g/ha [10]: 95 to 100%
